Test results from patent US20150126553A1, “BICYCLIC HETEROCYCLES CAPABLE OF MODULATING T-CELL RESPONSES, AND METHODS OF USING SAME” (Nogra Pharma Limited, priority 2012, published 2015).

Legend:
[1] = tested on: Human peripheral blood lymphocytes (PBLs); assay: Inhibition of T lymphocyte proliferation (PHA stimulation, tritiated thymidine); type: cell-based; details: PHA stimulated lymphocytes
Method: Human peripheral blood lymphocytes (PBLs) were isolated from whole blood of healthy volunteers by Ficoll-Isopaque density gradient centrifugation. After washing, monocytes were separated from lymphocytes by percoll density gradient centrifugation. The lymphocytes were cultured in IMDM (Gibco, Verviers, Belgium) supplemented with 10% heat inactivated fetal calf serum.
Cells were seeded in 96 well plates and stimulated with PHA (10 μg/ml) and corresponding concentration of pharmaceuticals. After 24 hours tritiated thymidine was added to each well and left overnight. Next morning proliferation was measured by microbeta counter. Graphs were plotted with the untreated condition set to a hundred percent.

kinase Zap70 = assay: Western blot of T cell receptor related signaling, phospho-Zap70; type: cell-based, human; details: pretreated 10 minutes, stimulated 10 minutes with PHA; FIG. 2A
Method: (§1) Lymphocytes were seeded in a 6 well plate (1.0·10^7/well), pretreated for 10 minutes with S3.1, S3.4 or dexamethasone and stimulated for 10 minutes with PHA. The experiment was stopped by adding a large volume of ice cold PBS to the cells. The suspension was transferred to a tube, briefly spinned down in a centrifuge and the supernatant removed. The pellet was lysed by adding cold lysisbuffer (0.1% NP40, 50 mM TrisHCl, 1 mM EDTA, 1 mM EGTA, 150 mM NaCl, 200 μM Na3VO4, 10 mM NaF and protease inhibitors) and incubating 20 minutes on ice.
(§2) To investigate the cell signaling events that are affected by treatment with S3.1 and S3.4, lysates were supplemented with sample buffer (188 mM Tris-Cl (pH 6.8), 3% SDS, 30% glycerol, 0.01% bromophenol blue, 15% β-mercaptoethanol), heated to 95° C. for 5 minutes, cooled on ice and sonicated. Samples were then run on 10% SDS-PAGE gel, blotted to PVDF membrane and incubated with antibodies for phospho-Zap70 (Cell Signaling Technology (Beverly, Mass.)) and phospho-LAT (Cell Signaling Technology (Beverly, Mass.)). To show equal loading of the samples the blot was incubated with an antibody directed against beta-actin (Santa Cruz Biotechnology (Heidelberg, Germany)).

scaffolding protein LAT = assay: Western blot of T cell receptor related signaling, phospho-LAT; type: cell-based, human; details: pretreated 10 minutes, stimulated 10 minutes with PHA; FIG. 2A
Method: as §1, §2

c1ccc(CN2CCCC(c3ccnc(SCCN4CCCC4)n3)C2)cc1 (stereo not drawn) [Compound S3.4]
effect on T lymphocyte proliferation [1]: antiproliferative effect | Zap70 phosphorylation level compared to a stimulated untreated control (kinase Zap70): lower phosphorylation levels | LAT phosphorylation level compared to a stimulated untreated control (scaffolding protein LAT): lower phosphorylation levels
